Columns and labels:
[1] = test system: bone marrow-derived mast cells (BMMC); assay: mast cell stimulus-coupled degranulation (release of β-glucuronidase); format: cell-based, Balb/C mice
Method: In another protocol, a population of mast cells was cultivated from murine bone marrow as follows. Briefly, bone marrows from Balb/C mice were flushed from the femur using PBS and a 27 g needle. The cells were cultured in a mixture of ⅔ RPMI-1640 with 19% FBS and cells that secreted IL-3. The bone marrow cells were allowed to differentiate for 18-25 days in the IL-3-containing mixture before being used for experiments. Bone marrow cells cultured in this manner have a phenotype similar to mucosal mast cells and are referred to as bone marrow-derived mast cells (BMMC).
The homogeneity of the in vitro propagated mast cells was checked by conventional flow cytometric techniques and staining for cell-type specific markers. Between days 14 and 21 of propagation, mature mast cells were harvested and prepared for the test cultures. The objective was to assess of the effect of compounds such as dehydroepiandrosterone on mast cell stimulus-coupled degranulation. Prepared mast cells were dispensed into test culture wells at a density of 1×10^7 cells/mL. In control cultures, mast cells were induced to degranulate after cross linking of IgE receptors with IgE antigen-antibody complexes. In parallel groups of cultures mast cells were preincubated dehydroepiandrosterone at various doses followed by activation using anti-IgE antibody. There was no detectable degranulation of mast cells as measured by release of β-glucuronidase from cytosolic storage granules of the cells in the absence of the stimulus. Introduction of anti-Ig-E receptor antibody to the cultures caused a significant release of β-glucuronidase.

[2] = test system: ovalbumin (OVA) sensitized mouse model of asthma; assay: ovalbumin (OVA) sensitized mouse model of asthma; format: in vivo, BALB/c mice; conditions: for IL-13: once daily subcutaneous injection, dexamethasone 5 mg/kg, triol 1 mg/mouse; for level of IL-5 in lung tissue: vehicle value stated for day 38, subcutaneous treatment
Method: BALB/c mice were sensitized by intraperitoneal injection with OVA (in alum adjuvant) on days 1, and 12. Airways were challenged with OVA on days 28 and 30 by delivery of OVA to the lung, or with saline. On day 31, six mice were with saline and 6 mice challenged with OVA were sacrificed and lung tissue was analyzed. The remaining animals were divided into 6 groups (6 mice per group). Groups of the mice were treated once daily by subcutaneous injection as follows. Group 1 vehicle control (0.1% carboxymethyl cellulose, 0.9% saline, 2% Tween 80, 0.05% phenol). Group 2 dexamethasone (5 mg/kg). Group 3 androstane-3α,16α,17α-triol (1 mg/mouse). Three animals in groups 1-3 were sacrificed on day 35 at 1 hr after final treatment and the remaining 3 animals in groups 1-3 were sacrificed on day 38.

[3] = day 35, 1 hr after final treatment

SMILES	inhibition at 100 µM ([1]; Mus musculus, BMMC, 100 μM, pre-exposed 5 to 10 minutes before activation with anti-IgE antigen-antibody complexes)	inhibition of degranulation at lower levels ([1]; levels lower than 100 μM)	degranulation on exposure to compound alone ([1]; no stimulus, release of β-glucuronidase)	capacity to limit eosinophil burden and reduce key inflammatory mediators (IL-5, IL-13, cysteinyl leukotrienes) ([2]; OVA sensitized mice)	IL-13 increase (rebound) after treatment ([2]; compared with dexamethasone treated animals)	IL-13 [2, 3]	IL-13 ([2]; day 38)	level of IL-5 in lung tissue [2]
C[C@]12CC[C@H](O)CC1=CC[C@@H]1[C@@H]2CC[C@]2(C)C(=O)CC[C@@H]12 [dehydroepiandrosterone]	~70%	proportionately less capacity to inhibit degranulation	no measurable degranulation	–	–	–	–	–
C[C@]12CC[C@H]3[C@@H](CCC4C[C@H](O)CC[C@@]43C)[C@@H]1C[C@@H](O)[C@H]2O (stereo partly drawn) [androstane-3α,16α,17α-triol]	–	–	–	limit eosinophil burden and to reduce key inflammatory mediators	did not generate an IL-13 increase	195 pg/mL	210 pg/mL	90 pg/mL
C[C@@H]1C[C@H]2[C@@H]3CCC4=CC(=O)C=C[C@]4(C)[C@@]3(F)[C@@H](O)C[C@]2(C)[C@@]1(O)C(=O)CO [dexamethasone]	–	–	–	–	–	340 pg/mL	390 pg/mL	145 pg/mL

— patent US20120252774A1, “STEROID TETROL SOLID STATE FORMS - 2” (priority 2010, published 2012)
